Experiments:
[1] = Antitumor activity against human D384 Med cells assessed as reduction in cell viability incubated for 24 hrs by Alamar blue assay; format: functional, cell-based
[2] = Antitumor activity against human D425 Med cells assessed as reduction in cell viability incubated for 24 hrs by Alamar blue assay; format: functional, cell-based
[3] = Antitumor activity against human D341 Med cells assessed as reduction in cell viability incubated for 24 hrs by Alamar blue assay; format: functional, cell-based
D283 Med = experiment: Anticancer activity against human D283 Med cells assessed as reduction in cell viability incubated for 72 hrs; format: functional, cell-based
[4] = Anticancer activity against human MED-MEB-8A cells assessed as reduction in cell viability incubated for 72 hrs; format: functional, cell-based
[5] = biological target: Vascular endothelial growth factor receptor 2 (Homo sapiens, UniProt P35968); experiment: Inhibition of human VEGFR2 (789 to 1356 residues) assessed as reduction in autophosphorylation at Y1175 residues using poly (Glu4Tyr1) peptide and ATP as substrate incubated for 60 mins by ADP-Glo Kinase Assay
Mus musculus = experiment: Antitumor activity in Ptch+/- p53-/- mutant mouse medulloblastoma allograft model assessed as increase in survival rate at 50 mg/kg, po QD relative to control (Rvb=75 days); format: functional

Chain of Vascular endothelial growth factor receptor 2 (P35968 whole entry, the tested form may be a part): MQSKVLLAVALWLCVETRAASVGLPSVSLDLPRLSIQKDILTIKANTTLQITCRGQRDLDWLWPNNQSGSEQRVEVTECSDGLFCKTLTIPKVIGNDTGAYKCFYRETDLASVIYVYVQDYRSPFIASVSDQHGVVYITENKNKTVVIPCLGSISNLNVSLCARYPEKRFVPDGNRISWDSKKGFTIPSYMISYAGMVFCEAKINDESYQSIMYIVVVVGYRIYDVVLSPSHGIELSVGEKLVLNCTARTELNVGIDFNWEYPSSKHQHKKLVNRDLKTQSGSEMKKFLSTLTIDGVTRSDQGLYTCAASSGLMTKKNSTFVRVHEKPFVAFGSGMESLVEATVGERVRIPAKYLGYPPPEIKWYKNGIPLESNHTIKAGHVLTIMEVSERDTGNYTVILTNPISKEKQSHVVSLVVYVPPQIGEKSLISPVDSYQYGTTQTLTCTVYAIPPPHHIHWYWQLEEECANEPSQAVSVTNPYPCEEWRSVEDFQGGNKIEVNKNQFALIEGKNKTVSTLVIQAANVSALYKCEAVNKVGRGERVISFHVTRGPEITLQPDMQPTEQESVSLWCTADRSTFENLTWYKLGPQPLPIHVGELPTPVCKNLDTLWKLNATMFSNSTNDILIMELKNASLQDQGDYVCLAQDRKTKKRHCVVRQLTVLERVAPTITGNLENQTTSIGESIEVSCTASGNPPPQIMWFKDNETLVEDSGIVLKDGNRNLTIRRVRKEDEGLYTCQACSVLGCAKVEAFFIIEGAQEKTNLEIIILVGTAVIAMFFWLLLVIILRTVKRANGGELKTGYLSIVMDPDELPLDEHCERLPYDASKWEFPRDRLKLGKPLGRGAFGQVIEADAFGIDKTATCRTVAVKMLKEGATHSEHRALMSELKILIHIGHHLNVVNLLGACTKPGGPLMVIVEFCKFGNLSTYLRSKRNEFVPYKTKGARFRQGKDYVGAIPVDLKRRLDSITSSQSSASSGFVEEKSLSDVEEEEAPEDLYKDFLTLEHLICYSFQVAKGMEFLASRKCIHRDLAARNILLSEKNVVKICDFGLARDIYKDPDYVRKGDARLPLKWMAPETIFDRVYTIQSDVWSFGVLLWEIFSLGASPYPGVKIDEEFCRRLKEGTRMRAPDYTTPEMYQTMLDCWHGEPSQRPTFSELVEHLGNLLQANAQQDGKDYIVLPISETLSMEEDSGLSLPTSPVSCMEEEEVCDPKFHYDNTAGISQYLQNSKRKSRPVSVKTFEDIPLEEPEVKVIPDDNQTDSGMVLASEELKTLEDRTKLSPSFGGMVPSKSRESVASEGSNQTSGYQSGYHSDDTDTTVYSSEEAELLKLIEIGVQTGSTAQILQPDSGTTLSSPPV

CCCCCCCCc1ccc(CCC(N)(CO)CO)cc1 [FINGOLIMOD]
IC50 [1]: 7.3 µM
IC50 [2]: 7.5 µM
IC50 [3]: 5.5 µM

C[C@H]1O[C@@H](O[C@H]2[C@@H](O)C[C@H](O[C@H]3[C@@H](O)C[C@H](O[C@H]4CC[C@@]5(C)[C@H](CC[C@@H]6[C@@H]5C[C@@H](O)[C@]5(C)[C@@H](C7=CC(=O)OC7)CC[C@]65O)C4)O[C@@H]3C)O[C@@H]2C)C[C@H](O)[C@@H]1O [DIGOXIN]
IC50 (D283 Med): 0.01 µM
IC50 [4]: 0.106 µM

COC(=O)Nc1nc2cc(C(=O)c3ccccc3)ccc2[nH]1 [MEBENDAZOLE]
IC50 [5]: 4.3 µM
MST (Mus musculus): 113 days

— ChEMBL document CHEMBL5096161, “Medulloblastoma drugs in development: Current leads, trials and drawbacks” (Eur J Med Chem, 2021)
